These results are taken from publication PMC6832141, “Synthesis and Cyclooxygenase Inhibition of Sulfonamide-Substituted (Dihydro)Pyrrolo[3,2,1-hi]indoles and Their Potential Prodrugs” (Molecules, 2019).

Where two headings read alike, the source gives them in different places.

For series [1] the following is noted: rat plasma, parecoxib leading to valdecoxib, cited from earlier work.
The next series deals with hCOX-2. Particulars: read-out: IC50 hCOX-2; cited from earlier work.
For series [2] the following is noted: cited from earlier work.
Details of series [3]: method as in doi:10.1002/slct.201601618, PMID 12064545. Particulars: reference substances for the HPLC logD method; cited from earlier work.
A further series deals with T1, ovine COX-1 (Ovis aries, UniProt P05979).
T1 construct: purchased Cayman Chemical 700100
T1 sequence (P05979 25-600): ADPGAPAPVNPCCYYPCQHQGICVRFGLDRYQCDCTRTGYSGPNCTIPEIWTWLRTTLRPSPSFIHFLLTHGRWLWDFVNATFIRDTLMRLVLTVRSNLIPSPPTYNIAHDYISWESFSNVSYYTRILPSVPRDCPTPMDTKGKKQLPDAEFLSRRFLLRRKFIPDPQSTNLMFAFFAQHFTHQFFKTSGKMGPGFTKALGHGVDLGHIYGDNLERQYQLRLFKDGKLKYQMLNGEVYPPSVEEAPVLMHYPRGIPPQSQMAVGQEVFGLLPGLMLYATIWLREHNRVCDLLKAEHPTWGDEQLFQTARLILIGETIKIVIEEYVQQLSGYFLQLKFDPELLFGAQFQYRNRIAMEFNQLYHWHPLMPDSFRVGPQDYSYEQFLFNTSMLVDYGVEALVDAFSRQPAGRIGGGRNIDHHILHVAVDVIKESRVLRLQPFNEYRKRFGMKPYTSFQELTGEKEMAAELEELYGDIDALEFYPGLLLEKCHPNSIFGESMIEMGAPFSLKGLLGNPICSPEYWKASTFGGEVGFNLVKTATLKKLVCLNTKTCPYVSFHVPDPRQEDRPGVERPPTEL
Put plainly: COX Fluorescent Inhibitor Screening Assay Kit (Cayman 700100), COX-1. Type of series: biochemical. The following applies: values marked ** : compounds were screened at a concentration of 100 µM.

For another series, the target named is T2, human COX-2 (Homo sapiens, UniProt P35354).
T2 construct: purchased Cayman Chemical 700100
T2 sequence (P35354 18-604): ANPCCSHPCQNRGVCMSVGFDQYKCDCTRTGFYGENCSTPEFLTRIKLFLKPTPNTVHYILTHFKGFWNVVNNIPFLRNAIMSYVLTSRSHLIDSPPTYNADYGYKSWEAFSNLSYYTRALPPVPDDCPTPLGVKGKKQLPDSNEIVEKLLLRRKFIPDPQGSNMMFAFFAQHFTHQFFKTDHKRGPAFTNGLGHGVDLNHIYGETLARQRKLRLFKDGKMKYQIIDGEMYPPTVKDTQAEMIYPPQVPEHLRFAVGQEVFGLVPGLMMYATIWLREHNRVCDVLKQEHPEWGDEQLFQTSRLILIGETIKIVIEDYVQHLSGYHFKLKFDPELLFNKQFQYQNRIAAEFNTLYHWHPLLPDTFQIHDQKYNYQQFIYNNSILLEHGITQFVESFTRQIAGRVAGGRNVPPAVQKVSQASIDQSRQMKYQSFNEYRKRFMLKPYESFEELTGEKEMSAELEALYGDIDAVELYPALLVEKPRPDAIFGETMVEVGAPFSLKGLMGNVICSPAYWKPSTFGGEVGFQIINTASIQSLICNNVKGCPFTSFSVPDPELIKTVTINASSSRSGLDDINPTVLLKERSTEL
Put plainly: COX Fluorescent Inhibitor Screening Assay Kit (Cayman 700100), COX-2. Type of series: biochemical.

The nature of series [4]: Lipophilicity, logD7.4 by HPLC method (Donovan and Pescatore). Type of series: physicochemical. The following applies: HPLC column ODP-50 4B (Shodex Asahipak 50 × 4.6 mm); pH 7.4, HPLC system 2, MeOH/PBS gradient. On the procedure:
The lipophilicity of all synthesized compounds was determined as logD7.4HPLC value (Table 1) using an HPLC method originally described by Donovan and Pescatore.
Column chromatography was performed using silica gel (mesh size 40–63 µm). Thin-layer chromatography (TLC) was performed on silica gel F-254 aluminum plates and visualized using UV (254 nm/366 nm). Analytical HPLC analysis was carried out with the following systems: (system 1) Agilent 1200 HPLC (Santa Clara, CA, USA; pump G1311A, autosampler G1329A, column oven G1316A, degasser G1322A, UV detector G1315D, γ detector Gabi Star (Raytest), Luna C18 column (Phenomenex, 250 × 4.6 mm), flow rate = 1 mL/min, isocratic eluent (MeCN/0.1% TFA in H2O 70/30 (v/v)); (system 2) Agilent 1100 HPLC (Santa Clara, CA, USA; binary pump G1312A, autosampler G1313A, column oven G1316A, degasser G1322A, UV detector G1314A, γ detector Gabi Star (Raytest, Straubenhardt, Germany); column ODP-50 4B (Shodex Asahipak 50 × 4.6 mm); eluent: MeOH/PBS (10 mM, pH 7.4) gradient t0 min 30/70 - t25 min 95/5 - t27 min 95/5 - t28 min 30/70 - t40 min 30/70, flow rate = 0.6 mL/min; (system 3) waters UPLC I-Class (Milford, MA, USA; binary gradient pump BSM, autosampler FTN, column manager CM, and diode array detector PDAeλ coupled to Waters Xevo TQ-S), column Aquity UPLC® BEH C18 column (waters, 100 × 2.1 mm, 1.7 µm, 130 Å), eluent: (A): 0.1% acetic acid in MeCN/MeOH 1/1/(B): 0.1% acetic acid in H2O; flow rate 0.4 mL/min), gradient: t0 min 45/55 - t0.5 min 45/55 - t5.5 min 95/5 - t7.0 min 95/5 - t8.0 min 45/55 – t8.5 min 45/55; (system 4) column (Kinetex C-18 (Phenomenex 50 × 2.1 mm, 1.7 µm, 100 Å), Shimadzu Nexera X2 UHPLC system (Kyoto, Japan; degasser DGU-20A3R and DGU-20A5R, pump LC-30AD, autosampler SIL-30AC, column oven CTO-20AC with two column switching valves FCV-14AH, diode array detector SPD-M30A, γ detector Gabi Star (Raytest, Straubenhardt, Germany), communication bus module CBM-20A), eluent: (A): MeCN, (B): 0.1% trifluoroacetic acid in H2O; flow rate 0.5 mL/min), gradient: t0 min 25/75 - t0.3 min 25/75 - t4.0 min 75/25 - t4.5 min 95/5 - t5.5 min 95/5 - t6.0 min 25/75 – t7.5 min 25/75. The products were monitored by an UV detector at 254 nm and purity of all compounds exceeded 95% as determined by analytical HPLC analysis (system 1 or system 3), unless otherwise stated. Semi-preparative HPLC was performed using the following system: column (C-18 Jupiter Proteo (Phenomenex 250 × 21.1 mm, 4 µm, 90 Å), Shimadzu prominence modular HPLC system (Kyoto, Japan; degasser DGU-20A5R, 2× pump LC-20AR, autosampler SIL-20AC HT, column oven CTO-20AC with column switching valve, diode array detector SPD-M20A, fluorescence detector RF-20A, and fraction collector FRC-10A, communication bus module CBM-20A), isocratic eluent 0.1% TFA in MeCN/0.1% TFA in H2O 70/30, flow rate = 10 mL/min.
The logD7.4HPLC value was determined as previously reported by us utilizing an HPLC method originally described by Donovan and Pescatore[18]. […]

For orientation: IC50 means the concentration that gives 50% inhibition. On to `CCC(=O)NS(=O)(=O)c1ccc(-c2c(-c3ccccc3)noc2C)cc1` [parecoxib], for which the “elimination half-life T1/2” value in series [1] (ref 19) was 8.1 min; in series [1] (ref 23), 41.4 min. In the series on hCOX-2, the IC50 was 20 µM.
For `CCC(=O)NS(=O)(=O)c1ccc(-c2c(-c3ccccc3)noc2C)cc1` [Parecoxib sodium], the water solubility in series [2] was more than 50 mg/mL.
As to `C[C@]12CCC(=O)C=C1CC[C@@H]1[C@@H]2[C@@H](O)C[C@@]2(C)[C@H]1CC[C@]2(O)C(=O)CO` [Hydrocortisone], the “logD7.4 of HPLC references” value in series [3] was 1.65.
One may read the chromatographic logD as a lipophilicity value derived from retention on a column. The melting point is the temperature of the solid-liquid transition. As to `Cc1ccc(-c2c(-c3ccc(S(N)(=O)=O)cc3)n3ccc4cccc2c43)cc1` [2b, 2-[4-(Sulfamoyl)phenyl]-1-(p-tolyl)pyrrolo[3,2,1-hi]indole], the melting point lay within 233 to 235 °C. In addition, the IC50 against ovine COX-1 is more than 100 µM. Also, the “SI (selectivity index)” value on human COX-2 (SI = IC50 (COX-1)/IC50 (COX-2)) is on record as more than 1087. The molecule also displayed an IC50 against human COX-2 (human COX-2, values marked ** : compounds were screened at a concentration of 100 µM) of 92 nM. The same molecule came in with a chromatographic logD in series [4] of 4.73.
